These results are taken from patent US20260216057A1, “PHARMACEUTICAL COMPOSITIONS FOR HERPES VIRUS” (priority 2022, published 2026).

A short description of data set [1]: Example 15: Compound 1 solution SC PK study in rat. It is filed as in vivo, male Sprague Dawley rats. On the procedure:
The LC-MS methodology and conditions used to analyse the helicase-primase inhibitor Compound 1 in rat plasma samples from the sub-cutaneous injection PK study described in Example 15 are provided in Table 8.
A solution of Compound 1 in 90% NMP and 10% Solutol HS15 at a concentration of 50 mg/mL was prepared as follows: • 1) An appropriate amount of crystalline Compound 1 (Form C) was weighed and added to NMP. • 2) After Compound 1 had dissolved, Solutol HS15 was added to the solution and mixed […]. • 3) The final dosing formulation was a clear solution.
Male Sprague Dawley (SD) rats with ~230-250 g body weight (aged 6-8 weeks) were used for the pharmacokinetic study. The animals had free access to food and water. […]
At each time point, approximately 150 μL whole blood was collected in a K2EDTA tube via the jugular vein. Blood samples were put on ice and centrifuged at 2000 g for 5 min to obtain a plasma sample within 15 minutes. Plasma samples were stored at approximately −70° C. until analyzed by LC-MS.

The nature of data set [2]: Example 13: Compound 1 IV PK study in monkey. It is filed as in vivo, male cynomolgus monkeys. The note with it: male, cynomolgus, plasma, 0.25 mg/kg, read-out: Monkey t1/2 (converted). On the procedure: The LC-MS methodology and conditions used to analyse Compound 1 in plasma samples from the intra-venous injection PK studies (Example 13) are described in Tables 5 to 7. A 0.25 mg/mL solution of Compound 1 in 10% DMSO, 10% Solutol HS15 and 80% Saline was prepared as follows: • 1) A stock solution of Compound 1 in DMSO was prepared. • 2) An equal volume of the Compound 1 stock solution and Solutol HS15 were combined and mixed. • 3) The above solution was diluted with normal saline to reach the target concentration. The final formulation was a clear solution. Male non-naïve Cyno Monkeys with were used for the monkey PK study. The animals had free access to food and water. The prepared solution was administered via intravenous injection to each animal group (n=3) to achieve a 0.25 mg/kg dose. At each time point, approximately 0.5 mL whole blood was collected into K2EDTA tubes. Blood samples were put on to ice and centrifuged at 2000 g for 5 min to obtain plasma sample within 15 minutes. Plasma samples were stored at approximately −70° C. until analyzed by LC-MS.

The conditions of data set [3]: Wald et al. (2014); cited from earlier work.
A short description of data set [4]: Example 4: pritelivir aqueous suspension SC PK study in dog. It is filed as in vivo, male non-naïve Beagle dogs. The note with it: aqueous suspension (dihydrate), 10 mg/kg, following an initial drug burst. On the procedure:
(§1) The LC-MS methodology and conditions used to analyse pritelivir in plasma samples from the PK studies described in Examples 1 to 5 are provided in Table 1.
An aqueous suspension of crystalline pritelivir free base (dihydrate) in a 0.9% NaCl+0.5% poloxamer 188 vehicle at a concentration of 5.0 mg/mL was prepared as follows: • 1) Vehicle (0.9% w/w NaCl and 0.5% w/w poloxamer 188) was prepared by dissolving NaCl and poloxamer 188 in water. • 2) Appropriate amount of crystalline pritelivir free base (dihydrate) was weighed and added to the vehicle. • 3) Mixture was stirred for 15 minutes, then vortexed for 1 minute and then sonicated for 10 minutes. • 4) The final dosing formulation was a homogenous white cloudy suspension.
Male non-naïve beagles were used for the dog PK study. The animals had free access to food and water. The prepared suspension was administered via subcutaneous injection to each animal group (n=3) with a dosing volume of 2 mL/kg to achieve a 10 mg/kg dose.
At each time point, approximately 0.5 mL of whole blood was collected into K2EDTA tubes. Blood samples were put on ice and centrifuged at 2000 g for 5 min to obtain plasma samples within 15 minutes. Plasma samples were stored at approximately −70° C. until analyzed by LC-MS.

Data set [5] can be described thus: Example 5: comparative pritelivir solution PK study in rat following IV/SC administration. It is filed as in vivo, male Sprague Dawley rats. Conditions: for AUC(0-t): male, Sprague Dawley, plasma, solution, n = 3. On the procedure:
A solution of crystalline pritelivir free base (dihydrate) in 5% NMP, 5% Solutol HS15 & 90% saline at a concentration of 0.5 mg/mL was prepared as follows: • 1) A stock solution of 10 mg/mL of pritelivir (dihydrate) in NMP was prepared. • 2) Equal volumes of the pritelivir stock solution and Solutol HS15 were combined and mixed. • 3) The above solution was diluted with normal saline to reach target 0.5 mg/mL pritelivir concentration. The formulation was a clear solution.
Male Sprague Dawley (SD) rats with ~300 g body weight (ages 6-8 weeks) were used for the pharmacokinetic study. The animals had free access to food and water. The pritelivir solution described above was administered via intravenous injection to animals (n=3) with a dosing volume of 2 mL/kg to achieve a 1 mg/kg dose. For subcutaneous injection, the dosing volume of 10 mL/kg was utilized to achieve a 5 mg/kg dose.
At each time point, approximately 200 μL whole blood was collected in a K2EDTA tube via the jugular vein. Blood samples were put on ice and centrifuged at 2000 g for 5 min to obtain a plasma sample within 15 minutes. Plasma samples were stored at approximately −70° C. until analyzed by LC-MS according to the method described above.

A short description of data set [6]: Example 3: pritelivir aqueous suspension SC PK study in monkey. It is filed as in vivo, male cynomolgus monkeys. The note with it: aqueous suspension (dihydrate), 10 mg/kg. The method, then:
as §1
An aqueous suspension of crystalline pritelivir free base (dihydrate) in a 0.9% NaCl+0.5% polysorbate 80 vehicle at a concentration of 3.0 mg/mL was prepared as follows: • 1) Vehicle (0.9% w/w NaCl and 0.5% w/w polysorbate 80) was prepared by dissolving NaCl and polysorbate 80 in water. • 2) Appropriate amount of crystalline pritelivir free base (dihydrate) was weighed and added to the vehicle. • 3) Mixture was stirred for 15 minutes, then vortexed for 1 minute and then sonicated for 10 minutes. • 4) The final dosing formulation was a homogenous white cloudy suspension.
Male non-naïve Cyno Monkeys with −5 kg body weight was used for the monkey PK study. The animals had free access to food and water. The prepared suspension was administered via subcutaneous injection to each animal group (n=3) with a dosing volume of 3.33 mL/kg to achieve a 10 mg/kg dose.
At each time point, approximately 0.5 mL whole blood was collected via the cephalic vein into K2EDTA tubes. Blood samples were put on to ice and centrifuged at 2000 g for 5 min to obtain plasma sample within 15 minutes. Plasma samples were stored at approximately −70° C. until analyzed by LC-MS.

Setting [7] is: solution in 90% NMP/10% Solutol HS15.

Molecules are shown by their SMILES.

A word on the AUC(0-t): it is exposure summed from dosing to a finite time, without extrapolation to infinity.

Take `Cc1nc(N2CCCN(c3ccc(-c4cc(F)ccc4F)cc3)C2=O)sc1S(N)(=O)=O` [Compound 1, 2-(3-(2′,5′-difluoro-[1,1′-biphenyl]-4-yl)-2-oxotetrahydropyrimidin-1(2H)-yl)-4-methylthiazole-5-sulfonamide]: in data set [1] (setting [7]), the “adverse reactions at the injection sites” value is on record as “no adverse reactions were observed” and the “variability in plasma concentrations” value is “low”. Moreover, the “prolonged exposure for (length of the study)” value in data set [1] (solution in 90% NMP/10% Solutol HS15 (50 mg/mL), dose of 50 mg/kg as printed, following an initial drug burst) amounted to 960 h. In addition, the half-life in data set [2] is 49.6 h.

In the case of `Cc1nc(N(C)C(=O)Cc2ccc(-c3ccccn3)cc2)sc1S(N)(=O)=O` [pritelivir, N-methyl-N-(4-methyl-5-sulfamoyl-1,3-thiazol-2-yl)-2-[4-(pyridin-2-yl)phenyl]acetamide], in data set [3], the “human biological terminal half-life” value is listed as “up to 80 hours”. Also, the “plasma exposure after SC administration” value in data set [4] was “prolonged exposure was achieved”. Moreover, in data set [5] (intravenous (IV), 1 mg/kg), the F turned out to be 100% and the exposure AUC(0-t) stood at 31.8 µg·h/mL. Besides, the AUC(0-t) in data set [5] (subcutaneous (SC), 5 mg/kg) was determined as 185 µg·h/mL. The “prolonged exposure out to (length of the study)” value in data set [6] is on record as “at least 456 hours”.
